According to patent US9227921B2, “Salts and polymorphs of a tetracycline compound” (Paratek Pharmaceuticals, Inc., priority 2008, dated 2016):
Blank lines part the entries; values can stand above or below the compound they belong to.

Key:
Format in all cases: physicochemical
[1] = Hygroscopicity by symmetric vapor sorption analyzer; conditions: 95% RH, 25.0° C.
Experimental: The hygroscopicity of the subject crystalline tosylate salt was determined using a symmetric vapor sorption analyzer, and reported as wt % gained as a function of percent relative humidity (% RH) from 5% to 95% to 1%, at 5% intervals at 25.0° C. A maximum weight gain of 12 wt % at 95% RH, with slight hysteresis upon desorption, was observed, and a 2 wt % loss due to IPA was observed.

[2] = Solubility of crystalline tosylate salt (excess solids, HPLC of supernatant); conditions: for Solubility: ambient temperature, two hours
Experimental: (§1) The solubilities were determined by mixing excess solids with solvent, at ambient temperature for two hours, followed by filtration of the supernatant. The supernatant concentration was determined by high-performance liquid chromatography (HPLC). […] The pH of 122.1 mg of the subject crystalline tosylate salt in 1.0 mL of water was determined to be 5.70.

[3] = Temperature and moisture stability study (HPLC impurity profile)
Experimental: A stability study was conducted on tosylate salt and mesylate salt of Compound 1, by monitoring changes in the high performance liquid chromatography (HPLC) impurity profiles for each salt when exposed to various temperatures and/or humidity conditions. Each sample was placed in a closed container and exposed to three controlled environments: refrigerated (5° C.), 20° C. and 60% relative humidity, and 40° C. and 75% relative humidity. […] The stability study of the crystalline tosylate salt was continued.
Samples were analyzed by the following reversed-phase HPLC impurity profile method at time points 0, 1, 2, 4 weeks (Table 7) and 3 months (Table 8) for the tosylate salt; and 0, 1 and 2 weeks for the mesylate salt (Table 9).
(§2) Reversed-phase HPLC analysis was conducted using a SYMMETRY SHIELD RP18 column (4.6×250 mm, 5 µm particle size), although analysis using a similar or equivalent column would be expected to yield similar results. The mobile phase components were 0.01 M ammonium acetate in water at pH 3.3 (A) and acetonitrile (B). The mobile phase composition was a gradient that increased from 6% to 15% B in five minutes, held at 15% B for 15 minutes, increased from 15% to 60% B in ten minutes, then from 60% to 90% B in two minutes, and then the system was re-equilibrated at 6% B for four minutes. The flow rate was 1.0 mL/minute, and the injection volume was 10.0 μL. The column temperature was maintained at 30° C. Detection was by ultraviolet light (UV) at 280 nm. The retention time for Compound 1 was approximately 15.7 minutes. The sample solution was prepared in mobile phase A to a final concentration of 2.0 mg/mL.

[4] = Water content and room temperature stability of crystalline tosylate salt
Experimental: Upon drying, water content in the crystalline tosylate salt of Compound 1 was calculated to be 0.5%. After standing at room temperature for 24 hours, this value increased to 5%. In contrast to the amorphous Compound 1, the crystalline tosylate salt of Compound 1 was stable for weeks and months at room temperature, maintaining a water content of approximately 5%.

[5] = pH of crystalline tosylate salt in water; conditions: 122.1 mg in 1.0 mL of water
Experimental: as §1

[6] = Photostability study (HPLC impurity profile)
Experimental: as §2
A photostability study was conducted on the tosylate salt of Compound 1. Two samples were prepared in clear glass Petri dishes. One sample was wrapped in aluminum foil to serve as a control sample. Both samples were placed in the ES 2000 Environmental Light 10 Chamber and exposed to 12 kilolux of cool white fluorescent light for a total of 47 hours.

[7] = Stability studies on free base Compound 1 and amorphous diHCl salt; conditions: 40° C.
Experimental: Stability studies were performed on the free base Compound 1 and an amorphous diHCl salt of Compound 1. This salt was formed by dissolving the compound in aqueous solution, adjusting the pH of the solution to approximately 4.2, followed by lyophilization. The free base degraded in less than one month at 40° C., and approximately three months at 4° C. In contrast, the diHCl salt of Compound 1 was stable for 6 months at 40° C., and for two years at room temperature (25° C.).

[8] = room temperature, weeks and months
[9] = Control sample wrapped in aluminum foil, 47 hours in light chamber
[10] = Exposed to 12 kilolux cool white fluorescent light, 47 hours

maximum weight gain (hygroscopicity) [1]: 12 wt %
Equilibration in water (appearance) ([2]; 56.8 mg in 0.5 mL water): clear solutions
Equilibration in water (appearance) ([2]; 122.1 mg in 1.0 mL water): clear solutions
Solubility ([2]; Acetonitrile): 5.9 mg/mL
Solubility ([2]; IPA): 5.8 mg/mL
Solubility ([2]; Methanol): 86.1 mg/mL
Solubility ([2]; Water): >100 mg/mL
4-keto compound RRT = 1.57 ([3]; 0 month, 20° C. & 60% RH): 0.05%
Beta-epimer RRT = 1.26 ([3]; 0 month, 20° C. & 60% RH): 1.76%
Total impurity ([3]; 0 month, 20° C. & 60% RH): 2.12%
4-keto compound RRT = 1.57 ([3]; 0 month, 40° C. & 75% RH): 0.05%
Beta-epimer RRT = 1.26 ([3]; 0 month, 40° C. & 75% RH): 1.76%
Total impurity ([3]; 0 month, 40° C. & 75% RH): 2.12%
Compound 1 ([3]; 1 week, 5° C.): 98.5%
RRT 0.52 ([3]; 1 week, 5° C.): 0.09%
RRT 1.19 ([3]; 1 week, 5° C.): 0.21%
RRT 1.26 (beta-epimer) ([3]; 1 week, 5° C.): 1.1%
RRT 1.77 ([3]; 1 week, 5° C.): 0.11%
Total Impurities ([3]; 1 week, 5° C.): 1.51
Compound 1 ([3]; 1 week, 20° C. & 60% RH): 98.3%
RRT 0.52 ([3]; 1 week, 20° C. & 60% RH): 0.09%
RRT 1.19 ([3]; 1 week, 20° C. & 60% RH): 0.21%
RRT 1.26 (beta-epimer) ([3]; 1 week, 20° C. & 60% RH): 1.2%
RRT 1.77 ([3]; 1 week, 20° C. & 60% RH): 0.12%
Total Impurities ([3]; 1 week, 20° C. & 60% RH): 1.63
Compound 1 ([3]; 1 week, 40° C. & 75% RH): 98.2%
RRT 0.52 ([3]; 1 week, 40° C. & 75% RH): 0.09%
RRT 0.77 ([3]; 1 week, 40° C. & 75% RH): 0.05%
RRT 1.19 ([3]; 1 week, 40° C. & 75% RH): 0.21%
RRT 1.26 (beta-epimer) ([3]; 1 week, 40° C. & 75% RH): 1.3%
RRT 1.77 ([3]; 1 week, 40° C. & 75% RH): 0.14%
Total Impurities ([3]; 1 week, 40° C. & 75% RH): 1.80
Compound 1 ([3]; 2 weeks, 5° C.): 98.4%
RRT 0.52 ([3]; 2 weeks, 5° C.): 0.08%
RRT 0.93 ([3]; 2 weeks, 5° C.): 0.08%
RRT 1.19 ([3]; 2 weeks, 5° C.): 0.24%
RRT 1.26 (beta-epimer) ([3]; 2 weeks, 5° C.): 1.1%
RRT 1.77 ([3]; 2 weeks, 5° C.): 0.12%
Total Impurities ([3]; 2 weeks, 5° C.): 1.62
Compound 1 ([3]; 2 weeks, 20° C. & 60% RH): 98.4%
RRT 0.52 ([3]; 2 weeks, 20° C. & 60% RH): 0.08%
RRT 0.93 ([3]; 2 weeks, 20° C. & 60% RH): 0.08%
RRT 1.19 ([3]; 2 weeks, 20° C. & 60% RH): 0.25%
RRT 1.26 (beta-epimer) ([3]; 2 weeks, 20° C. & 60% RH): 1.1%
RRT 1.77 ([3]; 2 weeks, 20° C. & 60% RH): 0.15%
Total Impurities ([3]; 2 weeks, 20° C. & 60% RH): 1.66
Compound 1 ([3]; 2 weeks, 40° C. & 75% RH): 98.3%
RRT 0.52 ([3]; 2 weeks, 40° C. & 75% RH): 0.08%
RRT 0.93 ([3]; 2 weeks, 40° C. & 75% RH): 0.09%
RRT 1.19 ([3]; 2 weeks, 40° C. & 75% RH): 0.25%
RRT 1.26 (beta-epimer) ([3]; 2 weeks, 40° C. & 75% RH): 1.1%
RRT 1.77 ([3]; 2 weeks, 40° C. & 75% RH): 0.16%
Total Impurities ([3]; 2 weeks, 40° C. & 75% RH): 1.68
4-keto compound RRT = 1.57 ([3]; 3 month, 20° C. & 60% RH): 0.10%
Beta-epimer RRT = 1.26 ([3]; 3 month, 20° C. & 60% RH): 1.74%
M-2 impurity RRT = 0.84 ([3]; 3 month, 20° C. & 60% RH): 0.18%
Total impurity ([3]; 3 month, 20° C. & 60% RH): 2.86%
4-keto compound RRT = 1.57 ([3]; 3 month, 40° C. & 75% RH): 0.14%
Beta-epimer RRT = 1.26 ([3]; 3 month, 40° C. & 75% RH): 1.66%
M-2 impurity RRT = 0.84 ([3]; 3 month, 40° C. & 75% RH): 0.31%
Total impurity ([3]; 3 month, 40° C. & 75% RH): 3.12%
Compound 1 ([3]; 4 weeks, 5° C.): 98.3%
RRT 0.52 ([3]; 4 weeks, 5° C.): 0.09%
RRT 0.77 ([3]; 4 weeks, 5° C.): 0.08%
RRT 0.93 ([3]; 4 weeks, 5° C.): 0.07%
RRT 1.19 ([3]; 4 weeks, 5° C.): 0.23%
RRT 1.26 (beta-epimer) ([3]; 4 weeks, 5° C.): 1.0%
RRT 1.77 ([3]; 4 weeks, 5° C.): 0.14%
Total Impurities ([3]; 4 weeks, 5° C.): 1.61
Compound 1 ([3]; 4 weeks, 20° C. & 60% RH): 98.2%
RRT 0.52 ([3]; 4 weeks, 20° C. & 60% RH): 0.10%
RRT 0.77 ([3]; 4 weeks, 20° C. & 60% RH): 0.10%
RRT 0.93 ([3]; 4 weeks, 20° C. & 60% RH): 0.12%
RRT 1.19 ([3]; 4 weeks, 20° C. & 60% RH): 0.24%
RRT 1.26 (beta-epimer) ([3]; 4 weeks, 20° C. & 60% RH): 1.1%
RRT 1.77 ([3]; 4 weeks, 20° C. & 60% RH): 0.18%
Total Impurities ([3]; 4 weeks, 20° C. & 60% RH): 1.84
Compound 1 ([3]; 4 weeks, 40° C. & 75% RH): 98.1%
RRT 0.52 ([3]; 4 weeks, 40° C. & 75% RH): 0.10%
RRT 0.77 ([3]; 4 weeks, 40° C. & 75% RH): 0.17%
RRT 0.93 ([3]; 4 weeks, 40° C. & 75% RH): 0.13%
RRT 1.19 ([3]; 4 weeks, 40° C. & 75% RH): 0.26%
RRT 1.26 (beta-epimer) ([3]; 4 weeks, 40° C. & 75% RH): 1.1%
RRT 1.77 ([3]; 4 weeks, 40° C. & 75% RH): 0.20%
Total Impurities ([3]; 4 weeks, 40° C. & 75% RH): 1.96
Compound 1 ([3]; Initial): 98.4%
RRT 0.52 ([3]; Initial): 0.06%
RRT 1.19 ([3]; Initial): 0.24%
RRT 1.26 (beta-epimer) ([3]; Initial): 1.2%
RRT 1.77 ([3]; Initial): 0.10%
Total Impurities ([3]; Initial): 1.60
relative stability among crystalline forms ([3]; after two weeks, 5° C., 20° C. & 60% RH, 40° C. & 75% RH): most stable crystalline form
storage stability ([3]; refrigerated and/or 20° C. & 60% RH, at least four weeks): stable
water content ([4]; after standing at room temperature for 24 hours): 5%
stability at room temperature [4, 8]: stable
water content maintained [4, 8]: approximately 5%
water content ([4]; upon drying): 0.5%
pH [5]: 5.70
Compound 1 [6, 9]: 98.2%
RRT 0.52 [6, 9]: 0.06%
RRT 0.77 [6, 9]: 0.08%
RRT 0.93 [6, 9]: 0.12%
RRT 1.19 [6, 9]: 0.26%
RRT 1.26 [6, 9]: 1.2%
RRT 1.77 [6, 9]: 0.16%
Compound 1 [6, 10]: 98.2%
RRT 0.52 [6, 10]: 0.06%
RRT 0.77 [6, 10]: 0.09%
RRT 0.93 [6, 10]: 0.13%
RRT 1.19 [6, 10]: 0.26%
RRT 1.26 [6, 10]: 1.1%
RRT 1.77 [6, 10]: 0.16%
Structure (SMILES): CN(C)c1cc(CNCC(C)(C)C)c(O)c2c1CC1CC3C(N(C)C)C(O)=C(C(N)=O)C(=O)C3(O)C(O)=C1C2=O.Cc1ccc(S(=O)(=O)O)cc1 (centres unmarked) [tosylate salt of Compound 1]

time for which the substance was stable [7]: 6 months
Structure (SMILES): CN(C)c1cc(CNCC(C)(C)C)c(O)c2c1CC1CC3C(N(C)C)C(O)=C(C(N)=O)C(=O)C3(O)C(O)=C1C2=O.Cl.Cl (centres unmarked) [diHCl salt of Compound 1]
